This note sets out measurements from US11136320B2, “Fused ring derivative used as FGFR4 inhibitor” (JACOBIO PHARMACEUTICALS CO., LTD., priority 2019, dated 2021).

A short description of one series: PK analysis of rats. In kind it is in vivo. The conditions noted are these: SD rats, p.o. (10 mg/kg). Here is the method: In the present invention, the pharmacokinetics experiment of the compounds in rats was performed using the SD rats (Vitolihua).
(1) Mode of administration: single gavage administration and intravenous injection administration.
(2) Dosage: 10 mg/kg in the gavage administration, 3 mg/kg in the intravenous injection administration.
Gavage administration: before administration, 15 min, 30 min, 1 h, 2 h, 4 h, 6 h, 8 h, 24 h; […]
(4) Sample processing: 200 μL of orbital blood was collected at each sampling time point. After anticoagulation with heparin, the blood was centrifuged at 5500 rpm for 10 min, and 60 μL of the supernatant was taken and put into the refrigerator at −80° C. for waiting for testing.
Samples obtained after administration of Compound 1 were tested using 4000 LC-MS/MS analyzer, wherein, the chromatographic separation conditions for testing were:
Samples obtained after administration of Compound 7 were tested using 4000 LC-MS/MS analyzer, wherein, the chromatographic separation conditions for testing were:
Samples obtained after administration of Compound 16 were tested using 4000 LC-MS/MS analyzer, wherein, the chromatographic separation conditions for testing were: […]

Series [1] in a line: PK/PD of NOD-SCID mouse (drug concentration in blood and in tumors). Type of series: in vivo. Particulars: for AUC(0-inf) / Cmax / Tmax / half-life / AUC(0-t) / concentration at 4 h / concentration at 6 h: NOD-SCID, mouse, po, 50 mg/kg, p.o. (50 mg/kg); for AUC(0-inf) / Cmax / Tmax / half-life / AUC(0-t): plasma; for AUC(0-t): read-out: AUC0-6 h; for concentration at 4 h / concentration at 6 h: tumor. As for the experimental part:
This experiment conducted when the pharmacological experiment in vivo was performed by gavage administration, wherein, the blood samples and tumor samples were taken at different time points to detect drug concentration in blood and drug concentrations in tumors.
(1) Mode of administration: gavage administration;
(2) Dosage: 50 mg/kg in the gavage administration;
Three mice were sampled at each sampling point;
(4) Blood sample collection: 200 μL of orbital blood was collected at sampling time point for each blood sample. After anticoagulation with heparin, the blood was centrifuged at 5500 rpm for 10 mins. 60 μL of the supernatant was taken and put it into the refrigerator at −80° C. for waiting for testing.
Tumour sample collection: 200-300 mg of each tumor tissue was taken. The tumor weight was marked, quickly freezed in liquid nitrogen and placed into a refrigerator at −80° C. for waiting for testing.
Tumour sample processing: pure water was added into the tumor sample according to a ratio of […] between the weight of the tumor sample and the volume of pure water and then it was homogenized. The homogenate was stored at −90° C. to −60° C. until the sample was analyzed. After 5 μL of acetonitrile/water (v/v=1:1) was added into 50 μL of tumor sample homogenate, 200 μL of acetonitrile (containing Dexamethasone 100 ng/ml as internal standard, or containing Verapamil 2 ng/ml as internal standard) was added. After protein precipitation, the resulting mixture was vortexed for 2 mins at 4° C. with 4600 g, and then centrifuged for 15 mins to obtain the supernatant. 100 μL of the supernatant was taken and added into 200 μL of deionized water. 5500 LC/MS/MS analyser was used for sample injection and analysis, after vortexing for homogeneity. The conditions for chromatographic separation and mass spectrometric analysis were as follows: […]

The subject of another series is Hep3B. Briefly: Pharmacodynamic in vivo, Hep3B model tumor growth inhibition. The arrangement: species or system NOD-SCID mice. From the text: The Hep3B cell line was purchased from ATCC; MEM cell culture medium, fetal bovine serum, and trypsin were purchased from Gibco; cell culture flasks were purchased from Greiner; and disposable Cell Counting Plate and taittinger Blue Solution Purchased from Bio-Rad. The disposable sterile syringe was purchased from Changzhou Jinlong Medical Plastic Instrument Co., Ltd, eye surgical scissors and eye surgical forceps were purchased from Shanghai Medical Instrument (Group) Co., Ltd. Surgical Instrument Factory, and 6-8 week old female NOD-SCID mice were purchased from Vitalivar.
a. One strain of Hep3B cells was taken out from the cell bank and MEM medium (MEM+10% FBS+1% PS) was used to recover the cells. The resuscitated cells were placed in a cell culture flask (the wall the flask was marked with the cell type, date, cultivator's name), and the cell culture flask was placed in a CO2 incubator (the temperature of the incubator was 37° C. and the CO2 concentration of the incubator was 5%);
b. When the cells covered about 90% of the bottom of the culture flask, passage was conducted. the cells were continued to cultivate in a CO2 incubator after passage. The above process was repeated until the number of the cell satisfied the requirements of pharmacodynamic in vivo;
c. The cultured cells were collected and counted using a BIO-Rad TC20 cell counter. According to the counting results, the cultured cells were resuspended with PBS and matrix gel (1:1) to obtain a cell suspension (density 5×10^7/ml), and the cell suspension was placed in an ice box for later use.
a. The cells were mixed well before seeding, and 0.5 ml of cell suspension was taken with a 1 ml syringe and bubbles in the cell suspension were removed. The syringe with the cell suspension was place on an ice pack for later use.
b. The NOD-SCID mice were set with the left hand, and the skin on the right back of the mice was disinfected with 75% alcohol. The inoculation was beginning after 30 seconds.
c. During inoculation, 1 mL syringe was on the right hand, and the cell suspension of Hep3B was inoculated subcutaneously into the right shoulder of the right back of the mouse at 0.1 mL/mouse. At inoculation interval, the syringe was placed on an ice pack and the mice were inoculated sequentially.
d. According to the tumor growth, the tumor was measured and the tumor size was calculated on the 12-15 days after inoculation.
Tumor volume calculation: tumor volume (mm^3)=length (mm)×width (mm)×width (mm)/2
e. When the tumors grew to an average volume of 100-150 mm^3, the mice were randomly divided into two groups according to tumor size and the weight of the mouse. […]
f. […] Tumors were measured and the mice were weighed twice a week after administration. […]

The target in another series is FGFR4 kinase (Homo sapiens (Human), UniProt P22455). Briefly: biochemical.
Chain of FGFR4 kinase (P22455 22-802): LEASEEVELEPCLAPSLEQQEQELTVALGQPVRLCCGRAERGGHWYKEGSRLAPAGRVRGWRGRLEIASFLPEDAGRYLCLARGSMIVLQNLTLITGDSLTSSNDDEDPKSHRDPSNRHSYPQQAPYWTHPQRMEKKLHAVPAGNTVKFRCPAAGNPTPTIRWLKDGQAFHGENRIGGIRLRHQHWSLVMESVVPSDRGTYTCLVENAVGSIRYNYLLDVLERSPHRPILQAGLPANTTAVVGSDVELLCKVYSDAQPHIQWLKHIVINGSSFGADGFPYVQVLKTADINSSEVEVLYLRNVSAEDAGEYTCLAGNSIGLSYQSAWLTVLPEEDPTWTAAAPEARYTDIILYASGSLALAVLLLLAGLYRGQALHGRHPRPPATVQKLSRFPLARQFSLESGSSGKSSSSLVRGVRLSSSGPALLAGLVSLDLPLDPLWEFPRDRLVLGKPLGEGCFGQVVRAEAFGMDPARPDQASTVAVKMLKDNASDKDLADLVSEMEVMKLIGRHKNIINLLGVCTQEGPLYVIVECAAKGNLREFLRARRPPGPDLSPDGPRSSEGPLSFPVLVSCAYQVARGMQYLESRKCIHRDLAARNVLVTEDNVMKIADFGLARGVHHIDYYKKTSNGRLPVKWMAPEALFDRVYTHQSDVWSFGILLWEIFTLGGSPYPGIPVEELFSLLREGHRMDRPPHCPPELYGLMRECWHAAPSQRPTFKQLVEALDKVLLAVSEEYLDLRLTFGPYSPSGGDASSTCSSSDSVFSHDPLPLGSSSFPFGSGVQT

As usually defined, the AUC(0-inf) is the area under the concentration-time curve extrapolated to infinity. Read a high AUC(0-inf) as more exposure. In general, Tmax refers to the time at which the peak concentration occurs. For orientation: half-life means the time in which the quantity being followed falls by half. A higher half-life goes with slow decline. As usually defined, the IC50 is the concentration that inhibits the measured activity by half. Read a low IC50 as higher potency. Consider `CSC[C@@H](C)Nc1cc(NC(=O)N2CCCc3cc(CN4CCN(C)CC4=O)c(C=O)nc32)ncc1C#N` [Compound 4, (R)—N-(5-Cyano-4-((1-(methylthio)propan-2-yl)amino)pyridin-2-yl)-7-formyl-6-((4-methyl-2-oxopiperazin-1-yl)methyl)-3,4-dihydro-1,8-naphthyridine-1 (2H)-carboxamide], for which, in the series “PK analysis of rats”, the “exposure amount AUC0-24 h and maximum drug concentration in blood Cmax compared with the reference compound” value was “significantly higher than the reference compound”. The AUC(0-t) in the series “PK analysis of rats” (rat, plasma, po, read-out: Curve area AUC0-24 h) turned out to be 4670 ng·h/mL. Besides, the Cmax in the series “PK analysis of rats” (rat, plasma, po, read-out: Drug concentration in blood Cmax) stood at 1450 ng/mL. In series [1] (Hep3B model, 4 h or 6 h), the “content in tumor tissue relative to the reference compound” value is “more than 15 times”. Also, in series [1] (Hep3B model), the AUC(0-inf) came to 3360 ng·h/mL, the Cmax stood at 1020 ng/mL, the Tmax stood at 2 h and the half-life was 1.48 h. For the same molecule, in series [1] (Hep3B model), the AUC(0-t) came out at 3020 ng·h/mL and the concentration at 4 h came out at 1210 ng/g. In series [1] (SNU878 model), the total exposure AUC(0-inf) amounted to 4260 ng·h/mL, the Cmax was 1230 ng/mL, the Tmax is 1 h and the half-life was 2.3 h. In addition, in series [1] (SNU878 model), the AUC(0-t) was 3530 ng·h/mL and the concentration at 4 h turned out to be 2340 ng/g. For the same molecule, in series [1] (Hep3B model, 6 h), the concentration at 6 h amounted to 673 ng/g. For the same molecule, in series [1] (SNU878 model, 6 h), the concentration at 6 h is 1950 ng/g and the “content in tumor tissue relative to the reference compound” value is “about twice”. For the same molecule, in the series on Hep3B, the antitumor effect result is listed as “excellent antitumor effect” and the “effect of 15 mg/kg BID compared with 60 mg/kg QD of the reference compound” value is on record as “equivalent”. Moreover, the TGI % in the series on Hep3B (15 mg/kg BID, gavage) came to 96.7%. The molecule further yielded an IC50 at FGFR4 kinase of 1.4 nM.
